# Assay results from ChEMBL document CHEMBL6177991, “Discovery of P11-2: A Potent First-in-Class MNK1-Targeting PROTAC Degrader for the Treatment of Cancer” (J Med Chem, 2025).
# Activity calls are given as the source filed them. The calls are words filed in the database; no cut-off is given here.
# Tests used:
# MV4-11 [1] = assay: Upregulation of PI3K-Akt pathway related protein expression in human MV4-11 cells by GO analysis; format: functional, cell-based
# MV4-11 [2] = assay: Effect on IKZF3 expression in human MV4-11 cells at 10 to 1000 nM incubated for 24 hrs by immunoblot analysis; format: functional, cell-based; settings: dose 10-1000 nM
# MV4-11 [3] = assay: Downregulation of SUFU expression level in human MV4-11 cells at 300 nM incubated for 24 hrs by DIA-based quantitative proteomics analysis; format: functional, cell-based
# [4] = Clearance in male Sprague-Dawley rat at 5 mg/kg, ip measured up to 24 hrs by LC-MS analysis; format: ADME, organism-based; settings: in vivo
# MV4-11 [5] = assay: Upregulation of mTOR pathway related protein expression in human MV4-11 cells by KEGG analysis; format: functional, cell-based
# MV4-11 [6] = assay: Induction of apoptosis in human MV4-11 cells assessed as early apoptotic cells at 30 nM incubated for 24 hrs by Annexin V-FITC/PI dual staining based flow cytometric analysis (reference value: 3.42 %); format: functional
# [7] = Toxicity in male ICR mouse assessed as change in serum creatinine level at 100 mg/kg, ip measured after 14 days; format: organism-based; settings: in vivo, 336 h, time 14 day
# MV4-11 [8] = assay: Upregulation of apoptosis pathway related protein expression in human MV4-11 cells by GO analysis; format: functional, cell-based
# MV4-11 [9] = assay: Anti-proliferative activity against human MV4-11 cells measured after 72 hrs by CCK8 assay; settings: MV4-11, 72 h
# MOLM-13 = assay: Anti-proliferative activity against human MOLM-13 cells measured after 72 hrs by CCK8 assay; settings: MOLM-13, 72 h
# MV4-11 [10] = assay: Induction of apoptosis in human MV4-11 cells assessed as late apoptotic cells at 300 nM incubated for 24 hrs by Annexin V-FITC/PI dual staining based flow cytometric analysis (reference value: 1.48 %); format: functional
# [11] = Toxicity in male ICR mouse assessed as change in serum CK-MB level at 100 mg/kg, ip measured after 14 days; format: organism-based; settings: in vivo, 336 h, time 14 day
# [12] = Toxicity in nude female NSG mouse xenografted with human MV4-11 cells assessed as change in serum creatinine level at 20 mg/kg, ip qd administrated for 16 days; format: organism-based; settings: in vivo, 384 h, time 16 day
# [13] = Toxicity in male ICR mouse assessed as change in serum ALT level at 100 mg/kg, ip measured after 14 days; format: organism-based; settings: in vivo, 336 h, time 14 day
# [14] = AUC (0 to t) in male Sprague-Dawley rat at 20 mg/kg, po measured up to 24 hrs by LC-MS analysis; format: ADME, organism-based; settings: in vivo
# MV4-11 [15] = assay: Induction of MNK2 degradation in human MV4-11 cells at 10 to 1000 nM incubated for 24 hrs by immunoblot analysis; format: cell-based; settings: dose 10-1000 nM
# [16] = Half life in male Sprague-Dawley rat at 20 mg/kg, po measured up to 24 hrs by LC-MS analysis; format: ADME, organism-based; settings: in vivo
# MV4-11 [17] = assay: Induction of apoptosis in human MV4-11 cells assessed as necrotic cells at 30 nM incubated for 24 hrs by Annexin V-FITC/PI dual staining based flow cytometric analysis (reference value: 0.16 %); format: functional
# Mus musculus [18] = assay: In vivo induction of MNK2 degradation in human MV4-11 cells xenografted in nude female NSG mouse at 20 mg/kg, ip qd administrated for 16 days; format: functional, organism-based; settings: time 16.0 day
# MV4-11 [19] = assay: Effect on GSPT1 expression in human MV4-11 cells at 10 to 1000 nM incubated for 24 hrs by immunoblot analysis; format: functional, cell-based; settings: dose 10-1000 nM
# MV4-11 [20] = assay: Upregulation of cell cycle regulation related protein expression in human MV4-11 cells by GO analysis; format: functional, cell-based
# [21] = Toxicity in male ICR mouse assessed as change in serum AST level at 100 mg/kg, ip measured after 14 days; format: organism-based; settings: in vivo, 336 h, time 14 day
# [22] = Clearance in male Sprague-Dawley rat at 1 mg/kg, iv measured up to 24 hrs by LC-MS analysis; format: ADME, organism-based; settings: in vivo
# [23] = Toxicity in male ICR mouse assessed as change in serum DBIL level at 100 mg/kg, ip measured after 14 days; format: organism-based; settings: in vivo, 336 h, time 14 day
# [24] = Oral bioavailability in male Sprague-Dawley rat at 20 mg/kg measured up to 24 hrs by LC-MS analysis; format: ADME, organism-based; settings: in vivo
# [25] = Tmax in male Sprague-Dawley rat at 20 mg/kg, po measured up to 24 hrs by LC-MS analysis; format: ADME, organism-based; settings: in vivo
# MV4-11 [26] = assay: Downregulation of SBNO2 expression level in human MV4-11 cells at 300 nM incubated for 24 hrs by DIA-based quantitative proteomics analysis; format: functional, cell-based
# MV4-11 [27] = assay: Downregulation of C9orf40 expression level in human MV4-11 cells at 300 nM incubated for 24 hrs by DIA-based quantitative proteomics analysis; format: functional, cell-based
# MV4-11 [28] = assay: Upregulation of PI3K-Akt pathway related protein expression in human MV4-11 cells by KEGG analysis; format: functional, cell-based
# MDA-MB-231 = assay: Anti-proliferative activity against human MDA-MB-231 cells measured after 96 hrs by CCK8 assay; settings: MDA-MB-231, 96 h
# MV4-11 [29] = assay: Upregulation of G2/M transition pathway related protein expression in human MV4-11 cells by GO analysis; format: functional, cell-based
# MV4-11 [30] = assay: Effect on IKZF1 expression in human MV4-11 cells at 10 to 1000 nM incubated for 24 hrs by immunoblot analysis; format: functional, cell-based; settings: dose 10-1000 nM
# [31] = Toxicity in male ICR mouse assessed as histopathological change in kidney at 100 mg/kg, ip measured after 14 days by hematoxylin and eosin staining based analysis; format: organism-based; settings: in vivo, 336 h, time 14 day
# [32] = AUC (0 to t) in male Sprague-Dawley rat at 1 mg/kg, iv measured up to 24 hrs by LC-MS analysis; format: ADME, organism-based; settings: in vivo
# [33] = Hepatotoxicity in nude female NSG mouse xenografted with human MV4-11 cells assessed as change in serum ALT level at 20 mg/kg, ip qd administrated for 16 days; format: toxicity, organism-based; settings: in vivo, 384 h, time 16 day
# MV4-11 [34] = assay: Induction of cell cycle arrest in human MV4-11 cells assessed as decrease in accumulation of cells at S phase incubated for 24 hrs by PI staining based flow cytometric analysis; format: functional; settings: dose 30-300 µM
# [35] = Toxicity in nude female NSG mouse xenografted with human MV4-11 cells assessed as change in serum uric acid level at 20 mg/kg, ip qd administrated for 16 days; format: organism-based; settings: in vivo, 384 h, time 16 day
# MV4-11 [36] = assay: Induction of apoptosis in human MV4-11 cells assessed as necrotic cells at 300 nM incubated for 24 hrs by Annexin V-FITC/PI dual staining based flow cytometric analysis (reference value: 0.16 %); format: functional
# [37] = Toxicity in male ICR mouse assessed as histopathological change in liver at 100 mg/kg, ip measured after 14 days by hematoxylin and eosin staining based analysis; format: organism-based; settings: in vivo, 336 h, time 14 day
# MM1.S = assay: Anti-proliferative activity against human MM1.S cells measured after 120 hrs by CCK8 assay
# Mus musculus [38] = assay: In vivo PROTAC activity at CRBN/MNK1 in human MV4-11 cells xenografted in nude female NSG mouse assessed as reduction in phosphorylated eIF4E level at 20 mg/kg, ip qd administrated for 16 days by Western blot analysis; format: functional, organism-based; settings: time 16.0 day
# [39] = Tmax in male Sprague-Dawley rat at 5 mg/kg, ip measured up to 24 hrs by LC-MS analysis; format: ADME, organism-based; settings: in vivo
smiles,measurement,setting,value
O=C1CCC(N2Cc3c(NC(=O)CCCCCC(=O)N4CCC(C(=O)Nc5ncc(-c6ccccc6)s5)CC4)cccc3C2=O)C(=O)N1 (configuration not stated),Activity,MV4-11 [1],Active
same,Activity,MV4-11 [2],No effect
same,Activity,MV4-11 [3],Active
same,CL/F,[4],8.75 mL/min/kg
same,Activity,MV4-11 [5],Active
same,Activity,MV4-11 [6],6.46%
same,Activity,[7],Non-toxic
same,Activity,MV4-11 [8],Active
same,IC50,MV4-11 [9],0.045 µM
same,IC50,MOLM-13,0.61 µM
same,Activity,MV4-11 [10],42.1%
same,Activity,[11],Non-toxic
same,Activity,[12],Non-toxic
same,Activity,[13],Non-toxic
same,AUC(0-t) at 24 h,[14],2950 ng·h/mL
same,Activity,MV4-11 [15],inactive
same,half-life,[16],7.1 h
same,Activity,MV4-11 [17],0.27%
same,Activity,Mus musculus [18],inactive
same,Activity,MV4-11 [19],No effect
same,Activity,MV4-11 [20],Active
same,Activity,[21],Non-toxic
same,clearance,[22],2.38 mL/min/kg
same,Activity,[23],Non-toxic
same,bioavailability,[24],2.1%
same,Tmax,[25],1.4 h
same,Activity,MV4-11 [26],Active
same,Activity,MV4-11 [27],Active
same,Activity,MV4-11 [28],Active
same,IC50,MDA-MB-231,2.06 µM
same,Activity,MV4-11 [29],Active
same,Activity,MV4-11 [30],No effect
same,Activity,[31],Non-toxic
same,AUC(0-t) at 24 h,[32],7020 ng·h/mL
same,Activity,[33],Non-toxic
same,Activity,MV4-11 [34],Dose-dependent-effect
same,Activity,[35],Non-toxic
same,Activity,MV4-11 [36],1.36%
same,Activity,[37],Non-toxic
same,IC50,MM1.S,0.24 µM
same,Activity,Mus musculus [38],Active
same,Tmax,[39],0.5 h
